Laboratory results taken from the NIST ThermoML archive (doi:10.1021/je700693z).
Numbers after ± are expanded uncertainties.

Tests used:
[1] = for mass density: 298.15 K, 101.33 kPa, Liquid, Vibrating tube method
[2] = Molar enthalpy of transition or fusion; conditions: Crystal; DSC

SMILES | mass density [1] | Glass transition temperature ([1]; DTA) | Molar enthalpy of transition or fusion [2] | Normal melting temperature ([1]; Crystal, DTA)
CCCC[n+]1ccn(CC)c1.O=S(=O)([N-]S(=O)(=O)C(F)(F)F)C(F)(F)F | 1401.8 ± 14 kg/m3 | -92.2 ± 3 °C | – | –
CCn1cc[n+](CC)c1.O=S(=O)([N-]S(=O)(=O)C(F)(F)F)C(F)(F)F [1,3-diethylimidazolium bis[(trifluoromethyl)sulfonyl]imide] | 1476 ± 15 kg/m3 | -67.2 ± 3 °C | 4.88 ± 0.191 kcal/mol | -10.5 ± 0.4 °C
CCCC[n+]1ccn(CC)c1.F[P-](F)(F)(F)(F)F [1-butyl-3-ethylimidazolium hexafluorophosphate] | 1327.6 ± 12 kg/m3 | -80.2 ± 3 °C | – | –
CCCCCCn1cc[n+](CC)c1.O=S(=O)([N-]S(=O)(=O)C(F)(F)F)C(F)(F)F [1-hexyl-3-ethylimidazolium bis(trifluoromethylsulfonyl)imide] | 1345.4 ± 13 kg/m3 | -88.3 ± 3 °C | – | –
